According to article PMC4213378, “Pharmacokinetics and Efficacy of the Spleen Tyrosine Kinase Inhibitor R406 after Ocular Delivery for Retinoblastoma” (Pharmaceutical Research, 2014):

Assays:
[1] = Crashing upon dilution of DMSO stock in PBS; assay type: physicochemical
Text: Supplement 11095_2014_1399_MOESM1_ESM.docx, table 14: Table S14. R406 phenylsulfonate salt and free base crashing upon dilution of DMSO stock in PBS | column: Measured Concentration

[2] = Storage stability of R406 in murine vitreous samples; assay type: physicochemical, mouse
Description: Stability: The extracted solution stability of R406 from murine plasma or vitreous was assessed at low (41.2nM), medium (370.4 nM), and high (3333.3 nM) concentrations in triplicate at room temperature. Blank murine plasma was spiked with the indicated concentrations of R406 and extracted solutions were stored at room temperature for day 0, and day 2. The short-term stability of R406 in murine plasma or vitreous at -20 °C was assessed at three concentrations in triplicate. […] internal standard/acetonitrile as described previously: for murine plasma samples, 50 µL of sample was quenched by addition of 100 µL of 5 mg/L OSI-906 (internal standard) in 100% acetonitrile, followed by plate sealing, shaking and centrifuging, transfer of 100 µL of supernatant injection of 10 µL of supernatant onto the LC–MS/MS system; for murine vitreous samples, 5 µL of sample quenched by addition of 45 µL of 5 mg/L OSI-906 (internal standard) in 100% acetonitrile, followed by plate sealing, shaking and centrifuging, transfer of 40 µL of supernatant injection of 10 µL of supernatant onto the LC–MS/MS system. Long term stability of R406 in murine plasma or vitreous at −80 °C was assessed. Unextracted spiked murine plasma or vitreous at low, medium, and high levels was frozen at −80 °C for 0, 7, and 14 days. Samples were thawed immediately extracted with acetonitrile/OSI-906, and quantitated. All samples were analyzed in triplicates.

RB355 cells = test: EdU incorporation (DNA synthesis) in RB355 cells; assay type: cell-based; settings: 5 μM R406, 0-72 h exposure
Description: To determine if the lack of evidence of efficacy of subconjunctival R406 in a solution formulation was due to suboptimal ocular exposure, we performed a pharmacokinetic experiment. Briefly, 10 μl of R406 solution formulation was delivered to each eye of 15 mice and the plasma and vitreous were harvested at different time points (0.5, 1, 2, 4, and 8 h). The concentration of R406 was measured at each time point in each tissue and the concentration of drug was plotted as a function of time (Fig. 2). The 4 h and 8 h data are not shown, as the majority of R406 concentrations in these samples were BLOQ. […] Importantly, the maximal concentration achieved (0.05 μM) was well below the concentration required to kill the most sensitive retinoblastoma cell line (RB355 in culture, Fig. S3). RB355 cells in culture were treated with DMSO, 1, 2.5, or 5 μM of R406 for varied exposure durations (0, 6, 12, 24, 48 and 72 h). […] Incorporation of 5-ethynyl-2′-deoxyuridine (EdU) was used to detect DNA synthesis. […] Viability of RB355 cells in culture is reduced to 50% of the viability of DMSO treated cells when exposed to 2.5 μM R406 for an exposure duration between 24 and 48 h or 5 μM R406 for an exposure duration between 12 and 24 h.
RB335 cells were seeded in 6-well dishes. […] Luminescence was read after 15 min on an Envision plate reader (Perkin Elmer). […]

Structure (SMILES): COc1cc(Nc2ncc(F)c(Nc3ccc4c(n3)NC(=O)C(C)(C)O4)n2)cc(OC)c1OC.O=S(=O)(O)c1ccccc1 [R406 phenylsulfonate salt]
- Measured Concentration ([1]; 10 mM DMSO stock diluted 1 in 10 in PBS prior to filtration): 1010 µM
- Measured Concentration ([1]; DMSO stock diluted 1 in 10 in PBS, 0.22 micron filtered): 88 µM
- Measured Concentration ([1]; DMSO stock diluted 1 in 20 in PBS prior to filtration): 559 µM
- Measured Concentration ([1]; DMSO stock diluted 1 in 20 in PBS, 0.22 micron filtered): 98 µM

Structure (SMILES): COc1cc(Nc2ncc(F)c(Nc3ccc4c(n3)NC(=O)C(C)(C)O4)n2)cc(OC)c1OC [R406]
- time extracted samples were stable ([2]; extracted from murine vitreous, room temperature): at least 48 hours
- Accuracy% ([2]; extracted vitreous samples in autosampler for 2 days, injected at Day 3, High Control 3333.3 nM): 91.6%
- Accuracy% ([2]; extracted vitreous samples in autosampler for 2 days, injected at Day 3, Low Control 41.2 nM): 96.0%
- Accuracy% ([2]; extracted vitreous samples in autosampler for 2 days, injected at Day 3, Middle Control 370.4 nM): 88.8%
- Accuracy% ([2]; murine vitreous at -20°C, thawed on Day 2, injected at Day 3, High Control 3333.3 nM): 91.1%
- Accuracy% ([2]; murine vitreous at -20°C, thawed on Day 2, injected at Day 3, Low Control 41.2 nM): 109.4%
- Accuracy% ([2]; murine vitreous at -20°C, thawed on Day 2, injected at Day 3, Middle Control 370.4 nM): 93.2%
- Accuracy% ([2]; murine vitreous at -20°C, thawed on Day 3, injected at Day 3, High Control 3333.3 nM): 90.3%
- Accuracy% ([2]; murine vitreous at -20°C, thawed on Day 3, injected at Day 3, Low Control 41.2 nM): 96.6%
- Accuracy% ([2]; murine vitreous at -20°C, thawed on Day 3, injected at Day 3, Middle Control 370.4 nM): 94.4%
- Accuracy% ([2]; murine vitreous at -80°C, injected at Day 8, High Control 3333.3 nM): 96.4%
- Accuracy% ([2]; murine vitreous at -80°C, injected at Day 8, Low Control 41.2 nM): 78.7%
- Accuracy% ([2]; murine vitreous at -80°C, injected at Day 8, Middle Control 370.4 nM): 87.5%
- Accuracy% ([2]; murine vitreous at -80°C, injected at Day 15, High Control 3333.3 nM): 105.2%
- Accuracy% ([2]; murine vitreous at -80°C, injected at Day 15, Low Control 41.2 nM): 105.5%
- Accuracy% ([2]; murine vitreous at -80°C, injected at Day 15, Middle Control 370.4 nM): 99.4%
- time spiked samples were stable ([2]; murine vitreous stored at -20°C): at least 72 hours
- time spiked samples were stable ([2]; murine vitreous stored at -80°C): ≥ 14 days
- proportion of cells that incorporated EdU (RB355 cells): decreased with increasing exposure time
